Key:
OTR [1] = target: T1, OTR (Homo sapiens, UniProt P30559); test: Tritiated OT (3H-OT) displacement; assay type: binding; parameters: expressed in transfected cells; host or cells: HEK cells, Flp-In TREX system (Invitrogen); settings: Kd concentration of 3H-OT; compound at a concentration up to 10 μM
T1 sequence (P30559 1-389): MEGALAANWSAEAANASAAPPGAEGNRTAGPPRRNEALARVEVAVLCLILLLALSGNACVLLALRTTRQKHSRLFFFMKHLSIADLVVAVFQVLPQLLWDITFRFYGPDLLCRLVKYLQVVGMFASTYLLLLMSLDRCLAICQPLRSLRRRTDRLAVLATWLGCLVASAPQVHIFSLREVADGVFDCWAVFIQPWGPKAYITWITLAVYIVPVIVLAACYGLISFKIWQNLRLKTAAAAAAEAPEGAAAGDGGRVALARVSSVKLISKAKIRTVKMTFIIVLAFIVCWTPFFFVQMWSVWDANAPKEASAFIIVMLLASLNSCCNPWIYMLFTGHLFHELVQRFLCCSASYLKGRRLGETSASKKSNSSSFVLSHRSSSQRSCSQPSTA

OTR [2] = target: T1, OTR; test: Modulation of oxytocin-evoked intracellular IP1 and Ca2+ increase: OT dose-response in presence and absence of 10 μM compound; settings: for change in OT potency seen in OT dose-response curves (figure legend): 10 μM of compound; for Relative Potency: OT potency with 10 μM compound relative to OT only
Procedure: These assays were performed using commercial kits (IP1 HTRF from Cisbio and Fluo-4AM from Invitrogen), according to the manufacturer's protocol.

OTR [3] = target: T1, OTR; test: Calcium (Ca2+) influx induced by OT in the presence of various concentrations of compound 3 (HEK assay); assay type: cell-based; parameters: expressed in transfected cells; host or cells: HEK cells, Flp-In TREX system (Invitrogen)
rat V1aR = rat V1aR (Rattus norvegicus, UniProt P30560); settings: cited from earlier work
Chain of rat V1aR (P30560 whole entry): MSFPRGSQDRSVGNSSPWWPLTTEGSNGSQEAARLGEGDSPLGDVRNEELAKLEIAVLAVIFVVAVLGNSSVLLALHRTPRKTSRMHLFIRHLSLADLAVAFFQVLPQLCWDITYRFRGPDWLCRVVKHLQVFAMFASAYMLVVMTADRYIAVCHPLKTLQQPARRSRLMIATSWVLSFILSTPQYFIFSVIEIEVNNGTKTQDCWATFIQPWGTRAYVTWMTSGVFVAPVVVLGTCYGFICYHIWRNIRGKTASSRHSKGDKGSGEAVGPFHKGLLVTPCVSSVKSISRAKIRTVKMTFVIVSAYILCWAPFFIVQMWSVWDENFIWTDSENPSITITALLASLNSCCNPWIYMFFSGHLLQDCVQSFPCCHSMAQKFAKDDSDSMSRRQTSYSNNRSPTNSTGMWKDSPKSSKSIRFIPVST

human V1aR = human V1aR (Homo sapiens, UniProt P37288); settings: cited from earlier work
Chain of human V1aR (P37288 whole entry): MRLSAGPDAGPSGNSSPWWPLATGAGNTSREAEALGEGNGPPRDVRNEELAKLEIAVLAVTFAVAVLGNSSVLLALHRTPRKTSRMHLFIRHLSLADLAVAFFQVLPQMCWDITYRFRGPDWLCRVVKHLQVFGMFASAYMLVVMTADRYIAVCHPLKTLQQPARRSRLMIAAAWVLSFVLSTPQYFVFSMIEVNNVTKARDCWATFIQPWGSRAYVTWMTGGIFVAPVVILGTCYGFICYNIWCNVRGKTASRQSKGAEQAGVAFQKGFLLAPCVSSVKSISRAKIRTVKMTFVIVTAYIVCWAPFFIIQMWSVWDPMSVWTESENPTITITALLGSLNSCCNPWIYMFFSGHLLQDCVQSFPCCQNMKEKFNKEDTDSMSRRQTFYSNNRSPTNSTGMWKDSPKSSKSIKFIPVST

[4] = rat, in vivo; cited from earlier work
[5] = in vivo; cited from earlier work

Q: Which melting point does the source give for `Cn1ncc2c1c1ccccc1n2C(=O)c1ccccc1` [Compound 1] here?
A: 152.6 to 153.2 °C

Q: And the “displacement of the binding of 3H-OT” value (OTR [1])?
A: None of compounds 1, 2 or 3 displaced ^3H-OT

Q: What about the “change in OT potency seen in OT dose-response curves (figure legend)” value (“change in OT potency seen” for short) (OTR [2]) of the same molecule?
A: improvement in OT potency

Q: And the “Relative Potency” value (OTR [2]; Table 2 group)?
A: 10.4

Q: Which melting point does the source give for `Cn1ncc2c1c1ccccc1n2C(=O)c1cccc(F)c1` [Compound 2] here?
A: 91.1 to 92.8 °C

Q: What about the “displacement of the binding of 3H-OT” value (OTR [1]) of the same molecule?
A: None of compounds 1, 2 or 3 displaced ^3H-OT

Q: And the “change in OT potency seen” value (OTR [2])?
A: improvement in OT potency

Q: What about the “Relative Potency” value (OTR [2]; Table 2 group) of the same molecule?
A: 8.4

Q: With `Cn1ncc2c1c1ccccc1n2C(=O)C1CCCCC1` [Compound 3] as the molecule, how does the melting point read?
A: 140.3 to 141.2 °C

Q: What about the “Relative Potency” value (OTR [3]; OT + 0.01 μM compound 3, relative to 0 μM) of the same molecule?
A: 0.64

Q: What about the “Relative Potency” value (OTR [3]; OT + 0.03 μM compound 3, relative to 0 μM) of the same molecule?
A: 0.47

Q: What about the “Relative Potency” value (OTR [3]; OT + 0.3 μM compound 3, relative to 0 μM) of the same molecule?
A: 2.83

Q: What about the “Relative Potency” value (OTR [3]; OT + 1 μM compound 3, relative to 0 μM) of the same molecule?
A: 3.90

Q: And the “Relative Potency” value (OTR [3]; OT + 10 μM compound 3, relative to 0 μM)?
A: 19.0

Q: And the “displacement of the binding of 3H-OT” value (OTR [1])?
A: None of compounds 1, 2 or 3 displaced ^3H-OT

Q: What about the “change in OT potency seen” value (OTR [2]) of the same molecule?
A: improvement in OT potency

Q: What about the “Relative Potency” value (OTR [2]; Table 2 group) of the same molecule?
A: 5.5

Q: For `Cc1ccc(C(=O)n2c3ccccc3c3c2cnn3C)cc1` [Compound 4], which melting point is on record?
A: 167 to 169 °C

Q: What about the “change in OT potency seen” value (OTR [2]) of the same molecule?
A: improvement in OT potency

Q: What about the “Relative Potency” value (OTR [2]; Table 3 group) of the same molecule?
A: 2.9

Q: Which melting point does the source give for `Cn1ncc2c1c1ccccc1n2C(=O)c1ccc(Cl)cc1` [Compound 5] here?
A: 145 to 147 °C

Q: What about the “change in OT potency seen” value (OTR [2]) of the same molecule?
A: improvement in OT potency

Q: And the “Relative Potency” value (OTR [2]; Table 3 group)?
A: 3.1

Q: What does the source list for `Cn1ncc2c1c1ccccc1n2C(=O)c1ccc(Cl)c(Cl)c1` [Compound 6]?
A: melting point: 142 to 143 °C; change in OT potency seen in OT dose-response curves (figure legend) (OTR [2]): improvement in OT potency; Relative Potency (OTR [2]; Table 3 group): 2.9

Q: Which melting point does the source give for `COc1ccc(C(=O)n2c3ccccc3c3c2cnn3C)cc1` [Compound 7] here?
A: 136 to 138 °C

Q: What about the “change in OT potency seen” value (OTR [2]) of the same molecule?
A: improvement in OT potency

Q: And the “Relative Potency” value (OTR [2]; Table 7 group)?
A: 2.1

Q: What does the source list for `Cn1ncc2c1c1ccccc1n2C(=O)c1ccc(F)cc1` [Compound 10]?
A: change in OT potency seen in OT dose-response curves (figure legend) (OTR [2]): improvement in OT potency; Relative Potency (OTR [2]; Table 7 group): 2.5

Q: With `Cn1ncc2c1c1ccccc1n2C(=O)C1CCCC1` [Compound 12] as the molecule, how does the “change in OT potency seen” value (OTR [2]) read?
A: improvement in OT potency

Q: And the “Relative Potency” value (OTR [2]; Table 4 group)?
A: 2.3

Q: With `Cn1ncc2c1c1ccccc1n2C(=O)C1CCCCCC1` [Compound 13] as the molecule, how does the “change in OT potency seen” value (OTR [2]) read?
A: improvement in OT potency

Q: What about the “Relative Potency” value (OTR [2]; Table 4 group) of the same molecule?
A: 2.5

Q: Which results are given for `CCCCC(=O)n1c2ccccc2c2c1cnn2C` [Compound 14]?
A: change in OT potency seen in OT dose-response curves (figure legend) (OTR [2]): improvement in OT potency; Relative Potency (OTR [2]; Table 7 group): 2.6

Q: With `Cn1ncc2c1c1ccccc1n2C(=O)C1CCOCC1` [Compound 16] as the molecule, how does the “change in OT potency seen” value (OTR [2]) read?
A: improvement in OT potency

Q: What about the “Relative Potency” value (OTR [2]; Table 7 group) of the same molecule?
A: 2.6

Q: For `Cn1ncc2c1c1ccccc1n2C(=O)C12CC3CC(CC(C3)C1)C2` [Compound 23], which “change in OT potency seen” value (OTR [2]) is on record?
A: improvement in OT potency

Q: What about the “Relative Potency” value (OTR [2]; Table 4 group) of the same molecule?
A: 3.4

Q: For `Cn1ncc2c1c1ccccc1n2C(=O)c1cccc2ncccc12` [Compound 29], which “change in OT potency seen” value (OTR [2]) is on record?
A: improvement in OT potency

Q: What about the “Relative Potency” value (OTR [2]; Table 8 group, n = 2) of the same molecule?
A: 2.8

Q: For `Cn1ncc2c3ccccc3n(C(=O)c3ccccc3)c21` [Compound 31], which “Relative Potency” value (OTR [2]; Table 5 group) is on record?
A: 5.0

Q: Which “Relative Potency” value (OTR [2]; Table 5 group) does the source give for `Cn1ncc2c3ccccc3n(C(=O)c3cccc(F)c3)c21` [Compound 32] here?
A: 3.4

Q: For `Cn1ncc2c3ccccc3n(C(=O)C3CCCCC3)c21` [Compound 33], which “Relative Potency” value (OTR [2]; Table 5 group) is on record?
A: 3.7

Q: Which “change in OT potency seen” value (OTR [2]) does the source give for `Cn1ccc2c1c1ccccc1n2C(=O)C1CCCCC1` [Compound 35] here?
A: improvement in OT potency

Q: What about the “Relative Potency” value (OTR [2]; Table 9 group) of the same molecule?
A: 3.7

Q: Which “change in OT potency seen” value (OTR [2]) does the source give for `Cn1ncc2c1c1ccccc1n2C(=O)N1CCCCC1` [Compound 42] here?
A: improvement in OT potency

Q: And the “Relative Potency” value (OTR [2]; Table 6 group)?
A: 2.3

Q: With `Cn1ncc2c1c1ccccc1n2S(=O)(=O)C1CCCCC1` [Compound 43] as the molecule, how does the “change in OT potency seen” value (OTR [2]) read?
A: improvement in OT potency

Q: And the “Relative Potency” value (OTR [2]; Table 6 group)?
A: 2.6

Q: With `CC[C@H](C)[C@@H]1NC(=O)[C@H](Cc2ccc(O)cc2)NC(=O)[C@@H](N)CSSC[C@@H](C(=O)N2CCC[C@H]2C(=O)N[C@@H](CC(C)C)C(=O)NCC(N)=O)NC(=O)[C@H](CC(N)=O)NC(=O)[C@H](CCC(N)=O)NC1=O` [OT, Oxytocin] as the molecule, how does the “affinity of OT at V1aR” value (rat V1aR) read?
A: 78 nM

Q: What about the “affinity of OT at V1aR” value (human V1aR) of the same molecule?
A: 120 nM

Q: And the half-life in blood [4]?
A: 3 to 8 min

Q: What about the “fraction of intranasal OT that enters the brain” value [5] of the same molecule?
A: 0.002-0.005%
